Measured values: patent US20220047569A1, “METHOD AND COMPOUND FOR USE, IN TREATING AND/OR PREVENTING NETOSIS” (Jubilant EpiPad LLC, priority 2020, published 2022)
Where a name gives a salt, the structure may show the parent alone.

Tested on: Histone H3 Citrullination in Neutrophils
Assay: Citrullination ELISA (Citrullinated Histone H3) in calcium ionophore stimulated neutrophils
Type: cell-based
Settings: Neutrophil; human neutrophils, 25 μM calcium ionophore, CitH3 ELISA
Description: Neutrophils were isolated according to the EasySep Direct Human Neutrophil Isolation Kit. In short, 50 mL of blood sample was drawn in a vacutainer containing K2EDTA from a healthy donor. To the whole blood, the isolation cocktail of 50 μL/mL was added. Then, in the next step 50 μL/mL of RapidSpheres™ was added to the sample. The sample was mixed evenly with the pipette and incubated for 10 minutes at room temperature. After incubation, PBS containing 1 mM EDTA was added at the ratio of 1:1 to the blood. Then the sample tube was incubated for 10 minutes. The enriched cell suspension was transferred into a new tube and RapidSpheres™ were added at 50 μL/mL to this suspension, mixed and incubated for 10 minutes at room temperature. At this step, the enriched cell suspension was carefully collected as a clear fraction into a fresh tube. Then, previous tube was replaced with the fresh tube containing enriched cell suspension. After the final separation, the clear solution of enriched cell suspension was carefully transferred to fresh tube which was ready to use for the experiment. These cells were then subjected to wash twice with plain RPMI 1640 media without Fetal Bovine Serum (FBS) and centrifuged at 1500 rpm for 5 minutes at room temperature. Cell counts were performed on each sample by Invitrogen cell counter. After the cell count, cell density was adjusted according to the experiment and re-suspended in complete RPMI media containing RPMI1640, 2% BSA and 1 mM CaCl2.
Freshly isolated neutrophils from human donor were seeded at a density of 0.5×10^6 cells in 400 μL cell suspension/well in a 24-well plate and cells were pre-incubated with the compound for 30 minutes by adding 50 μL of the 10× concentration to achieve the final 1× concentration of compound (10 μM, 1 μM and 0.1 μM). 1% DMSO was added in control wells. Then, the cells were stimulated in the presence and absence of calcium ionophore by adding 50 μL/well to achieve the final concentration of 25 μM. Upon incubation for 30 minutes with calcium ionophore, S7 nuclease was added to the wells and incubated for 10 minutes to disrupt NET DNA. Following incubation, 10 μL of 1 mM EDTA was added to inactivate nuclease. Cells were scrapped gently and transferred to the tubes, followed by centrifugation at 1500 rpm for 5 minutes. After centrifugation, supernatant was discarded, and 200 μL of lysis buffer containing PBS and 1× Protease inhibitor was added to the tubes. The obtained lysis was then subjected to mechanical shearing using Geno grinder by spin the plate at 2500 rpm for 10 minutes, followed by collection of supernatant and stored at −20° C. or immediately used for ELISA.
ELISA was performed as per Citrullinated Histone H3 ELISA Kit. All the buffer components from the kit were dissolved according to the manufactures protocol. ELISA Buffer Concentrate (10×) (Item No. 400060) and Wash Buffer Concentrate (400×) (Item No. 400060) along with polysorbate 20 (2000×) (Item No. 400035) was diluted to 1× with milliQ water. The standard for use in the ELISA was prepared as follows: • Obtain eight clean test tubes and label them, #1 through #8. Aliquot 4.9 mL of ELISA Buffer into tube #1. • Aliquot 500 μL of ELISA Buffer into the tubes #2-8. […] This tube is considered as blank, the lowest point on the standard curve.
100 μL of standards or diluted sample was added to the appropriate wells on the 96-well plate. Plates were covered with 96-well cover sheet and incubated for two hours at room temperature on an orbital shaker. The samples and standard were removed from the wells and washed four times with Wash Buffer. After the last wash, Anti-Histone H3 HRP Conjugate (Item No. 501441) (10×) stock solution was diluted in 1×ELISA buffer and 100 μL of the HRP Conjugate working solution was added to each well of the plate and incubated for one hour at room temperature on an orbital shaker. […]

Structure (SMILES) | IC50 [nM]
Cc1c(-c2cc3ccccc3n2Cc2cncnc2)nc2cc(C(=O)N3CCC[C@@H](N)C3)ccn12 [Compound 58, (R)-(3-aminopiperidin-1-yl)(3-methyl-2-(1-(pyrimidin-5-ylmethyl)-1H-indol-2-yl)imidazo[1,2-a]pyridin-7-yl)methanone trifluoroacetic acid salt] | > 1000
Cc1c(-c2cc3cc(F)ccc3n2Cc2ccncc2)nc2cc(C(=O)N3CCC[C@@H](N)C3)ccn12 [Compound 74, (R)-(3-aminopiperidin-1-yl)(2-(5-fluoro-1-(pyridin-4-ylmethyl)-1H-indol-2-yl)-3-methylimidazo[1,2-a]pyridin-7-yl)methanone] | > 1000
COc1ccc(Cn2c(-c3nc4cc(C(=O)N5CCC[C@@H](N)C5)ccn4c3C)cc3cc(F)ccc32)cc1 [Compound 75, (R)-(3-aminopiperidin-1-yl)(2-(5-fluoro-1-(4-methoxybenzyl)-1H-indol-2-yl)-3-methylimidazo[1,2-a]pyridin-7-yl)methanone] | 100 to 1000
Cc1cc(C(=O)N2CCC[C@@H](N)C2)cc2nc(-c3cc4ccccc4n3Cc3ccccc3)c(C)n12 [Compound 26, (R)-(3-aminopiperidin-1-yl)(2-(1-benzyl-1H-indol-2-yl)-3,5-dimethylimidazo[1,2-a]pyridin-7-yl)methanone] | < 100
N[C@@H]1CCCN(C(=O)c2cc3c4c(c2)nc(-c2cc5ccccc5n2Cc2ccccc2F)n4CCO3)C1 [Compound 100, (R)-(3-aminopiperidin-1-yl)(2-(1-(2-fluorobenzyl)-1H-indol-2-yl)-3,4-dihydro-5-oxa-1,2a-diazaacenaphthylen-7-yl)methanone] | < 100
N[C@@H]1CCCN(C(=O)c2cc3c4c(c2)nc(-c2cc5ccccc5n2Cc2cccnc2)n4CCN3)C1 [Compound 152, (R)-(3-aminopiperidin-1-yl)(2-(1-(pyridin-3-ylmethyl)-1H-indol-2-yl)-5,6-dihydro-4H-imidazo[1,5,4-de]quinoxalin-8-yl)methanone] | < 100
COc1ccc2cc(-c3nc4cc(C(=O)N5CCC[C@@H](N)C5)ccn4c3C)n(Cc3ccc(F)cc3)c2c1 [Compound 80, (R)-(3-aminopiperidin-1-yl)(2-(1-(4-fluorobenzyl)-6-methoxy-1H-indol-2-yl)-3-methylimidazo[1,2-a]pyridin-7-yl)methanone] | > 1000
Cc1c(-c2cc3cccc(Cl)c3n2CC2CC2)nc2cc(C(=O)N3CCC[C@@H](N)C3)ccn12 [Compound 44, (R)-(3-aminopiperidin-1-yl)(2-(7-chloro-1-(cyclopropylmethyl)-1H-indol-2-yl)-3-methylimidazo[1,2-a]pyridin-7-yl)methanone] | < 100
N[C@@H]1CCCN(C(=O)c2cc3c4c(c2)nc(-c2cc5cc(F)c(F)cc5n2CC2CC2)n4CCN3)C1 [Compound 163, (R)-(3-aminopiperidin-1-yl)(2-(1-(cyclopropylmethyl)-5,6-difluoro-1H-indol-2-yl)-5,6-dihydro-4H-imidazo[1,5,4-de]quinoxalin-8-yl)methanone] | < 100
COc1cccc(Cn2c(-c3nc4cc(C(=O)N5CCC[C@@H](N)C5)ccn4c3C)cc3cc(F)ccc32)c1 [Compound 53, (R)-(3-aminopiperidin-1-yl)(2-(5-fluoro-1-(3-methoxybenzyl)-1H-indol-2-yl)-3-methylimidazo[1,2-a]pyridin-7-yl)methanone] | 100 to 1000
Cc1c(-c2cc3ccccc3n2CC2CCC2)nc2cc(C(=O)N3CCC[C@@H](N)C3)ccn12 [Compound 61, (R)-(3-aminopiperidin-1-yl)(2-(1-(cyclobutylmethyl)-1H-indol-2-yl)-3-methylimidazo[1,2-a]pyridin-7-yl)methanone] | > 1000
COCCn1c(-c2nc3cc(C(=O)N4CCC[C@@H](N)C4)cc4c3n2CCO4)cc2ccc(OC)cc21 [Compound 107, (R)-(3-aminopiperidin-1-yl)(2-(6-methoxy-1-(2-methoxyethyl)-1H-indol-2-yl)-3,4-dihydro-5-oxa-1,2a-diazaacenaphthylen-7-yl)methanone] | 100 to 1000
N[C@@H]1CCCN(C(=O)c2cc3c4c(c2)nc(-c2cc5ccc(F)cc5n2CC2CC2)n4CCO3)C1 [Compound 114, (R)-(3-aminopiperidin-1-yl)(2-(1-(cyclopropylmethyl)-6-fluoro-1H-indol-2-yl)-3,4-dihydro-5-oxa-1,2a-diazaacenaphthylen-7-yl)methanone] | < 100
Cc1c(-c2cc3cc(F)ccc3n2Cc2ccc(F)cc2)nc2cc(C(=O)N3CCC[C@@H](N)C3)ccn12 [Compound 76, (R)-(3-aminopiperidin-1-yl)(2-(5-fluoro-1-(4-fluorobenzyl)-1H-indol-2-yl)-3-methylimidazo[1,2-a]pyridin-7-yl)methanone] | > 1000
COc1ccc(Cn2c(-c3nc4cc(C(=O)N5CCC[C@@H](N)C5)cc5c4n3CCO5)cc3ccccc32)cc1 [Compound 105, (R)-(3-aminopiperidin-1-yl)(2-(1-(4-methoxybenzyl)-1H-indol-2-yl)-3,4-dihydro-5-oxa-1,2a-diazaacenaphthylen-7-yl)methanone] | 100 to 1000
N[C@@H]1CCCN(C(=O)c2cc3c4c(c2)nc(-c2cc5ccccc5n2CC(F)F)n4CCO3)C1 [Compound 133, (R)-(3-aminopiperidin-1-yl)(2-(1-(2,2-difluoroethyl)-1H-indol-2-yl)-3,4-dihydro-5-oxa-1,2a-diazaacenaphthylen-7-yl)methanone] | > 1000
N[C@@H]1CCCN(C(=O)c2cc3c4c(c2)nc(-c2cc5ccccc5n2CC2CCOCC2)n4CCO3)C1 [Compound 126, (R)-(3-aminopiperidin-1-yl)(2-(1-((tetrahydro-2H-pyran-4-yl)methyl)-1H-indol-2-yl)-3,4-dihydro-5-oxa-1,2a-diazaacenaphthylen-7-yl)methanone] | > 1000
Cc1c(-c2cc3ccc(F)cc3n2Cc2cccnc2)nc2cc(C(=O)N3CCC[C@@H](N)C3)ccn12 [Compound 69, (R)-(3-aminopiperidin-1-yl)(2-(6-fluoro-1-(pyridin-3-ylmethyl)-1H-indol-2-yl)-3-methylimidazo[1,2-a]pyridin-7-yl)methanone] | 100 to 1000
Cc1c(-c2cc3ccccc3n2CC(F)F)nc2cc(C(=O)N3CCC[C@@H](N)C3)ccn12 [Compound 78, (R)-(3-aminopiperidin-1-yl)(2-(1-(2,2-difluoroethyl)-1H-indol-2-yl)-3-methylimidazo[1,2-a]pyridin-7-yl)methanone trifluoroacetic acid salt] | > 1000
COc1ccc2cc(-c3nc4cc(C(=O)N5CCC[C@@H](N)C5)cc5c4n3CCO5)n(Cc3ncccc3F)c2c1 [Compound 119, (R)-(3-aminopiperidin-1-yl)(2-(1-((3-fluoropyridin-2-yl)methyl)-6-methoxy-1H-indol-2-yl)-3,4-dihydro-5-oxa-1,2a-diazaacenaphthylen-7-yl)methanone] | 100 to 1000
N[C@@H]1CCCN(C(=S)c2cc3c4c(c2)nc(-c2cc5ccccc5n2CC2CC2)n4CCN3)C1 [Compound 172, (R)-(3-aminopiperidin-1-yl)(2-(1-(cyclopropylmethyl)-1H-indol-2-yl)-5,6-dihydro-4H-imidazo[1,5,4-de]quinoxalin-8-yl)methanethione] | < 100
Cc1c(-c2cc3ccccc3n2Cc2ccc(CO)cc2)nc2cc(C(=O)N3CCC[C@@H](N)C3)ccn12 [Compound 81, (R)-(3-aminopiperidin-1-yl)(2-(1-(4-(hydroxymethyl)benzyl)-1H-indol-2-yl)-3-methylimidazo[1,2-a]pyridin-7-yl)methanone] | > 1000
CC(C)Cn1c(-c2nc3cc(C(=O)N4CCC[C@@H](N)C4)cc4c3n2CCO4)cc2cccc(Cl)c21 [Compound 141, (R)-(3-aminopiperidin-1-yl)(2-(7-chloro-1-isobutyl-1H-indol-2-yl)-3,4-dihydro-5-oxa-1,2a-diazaacenaphthylen-7-yl)methanone] | > 1000
